Assay results as given in ChEMBL document CHEMBL5154648, “Antitumor activity of novel POLA1-HDAC11 dual inhibitors” (Eur J Med Chem, 2022).
Calls of active or inactive are those of the source. The calls are words filed in the database; no cut-off is given here.

Tests used:
[1] = Induction of cell cycle arrest in human H460-R9A cells assessed as accumulation of cells at G0/1 phase at 2.2 uM after 72 hrs by flow cytometry (reference value: 50.1%); format: functional
NCI-H460 = experiment: Induction of cell cycle arrest in human NCI-H460 cells assessed as accumulation of cells at S phase at 0.12 uM after 72 hrs by flow cytometry (reference value: 32.1%); format: functional
[2] = Induction of cell cycle arrest in human H460-R9A cells assessed as accumulation of cells at S phase at 2.2 uM after 72 hrs by flow cytometry (reference value: 34.5%); format: functional
[3] = Induction of cell cycle arrest in human H460-R9A cells assessed as accumulation of cells at S phase at 2.8 uM after 72 hrs by flow cytometry (reference value: 34.5%); format: functional
MM473 [4] = experiment: Antitumor activity against human MM473 cells xenografted in mouse assessed as tumor growth inhibition at 50 mg/kg, po bid administered 5 times a week for 3 weeks; format: functional; details: MM473, 504 h, read-out: TGI
[5] = molecular target: T1, Histone deacetylase 11 (Homo sapiens) (UniProt Q96DB2); experiment: Inhibition of HDAC11 in human MM473 cells at 0.1 to 0.4 uM assessed as induction of p53 acetylation and measured by Western blot analysis; format: cell-based; details: dose 0.1-0.4 µM
T1 sequence (whole entry): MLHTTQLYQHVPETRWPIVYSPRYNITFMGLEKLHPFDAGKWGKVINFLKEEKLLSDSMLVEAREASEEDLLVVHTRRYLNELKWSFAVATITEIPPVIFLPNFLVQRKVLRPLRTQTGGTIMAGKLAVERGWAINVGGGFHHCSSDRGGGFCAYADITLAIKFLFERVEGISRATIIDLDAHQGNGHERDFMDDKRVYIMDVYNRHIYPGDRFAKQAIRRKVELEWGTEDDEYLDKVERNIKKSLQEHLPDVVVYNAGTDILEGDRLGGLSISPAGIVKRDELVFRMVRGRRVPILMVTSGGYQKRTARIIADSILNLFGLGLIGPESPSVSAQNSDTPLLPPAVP

MM473 [6] = experiment: Induction of cell cycle arrest in human MM473-Luc cells assessed as accumulation of cells at S phase at 1.4 uM after 72 hrs by flow cytometry (reference value: 13.7%); format: functional

Q: Which Activity [1] does the source give for `O=C(O)C=Cc1ccc(-c2ccc(O)c(C34CC5CC(CC(C5)C3)C4)c2)cc1` here?
A: 22.8%

Q: What about the Activity (NCI-H460) of the same compound?
A: 79.7%

Q: What about the Activity [2] of the same compound?
A: 63.4%

Q: With `O=C(O)C=Cc1ccc(-c2ccc(OCC(=O)NO)c(C34CC5CC(CC(C5)C3)C4)c2)cc1` as the compound, how does the Activity [3] read?
A: 37.4%

Q: And the inhibition in vivo at 50 mg/kg (MM473 [4])?
A: 77%

Q: What about the inhibition [5] of the same compound?
A: Active

Q: For `CC(Oc1ccc(-c2ccc(C=CC(=O)O)cc2)cc1C12CC3CC(CC(C3)C1)C2)C(=O)NO` (configuration not stated), which Activity (MM473 [6]) is on record?
A: 81.6%
